Test results from patent US7598028B2, “Compositions and methods for detecting and treating prostate disorders” (The Regents of the University of Michigan, priority 2006, dated 2009).
“Also recorded” adds a separate entry of the source.

Legend:
Format in all cases: cell-based, human
[1] = tested on: N1 prostate fibroblast cells; experiment: Proliferation assay, add back, N1 fibroblasts; details: add back of exogenous chemokine, 96 hours
Text: FIG. 6C describes how CXCL1, CXCL5, CXCL6, and CXCL12 stimulate N15C6 prostate epithelial cell proliferation, N1 prostate fibroblast cell proliferation, and LNCaP prostate epithelial cell proliferation compared to serum-free (SF HIE) media alone. “Add back” assays were next performed to determine whether the addition of exogenous CXCL1, CXCL5, CXCL6, and CXCL12 to defined, serum-free media induced […] or LNCaP prostate epithelial or N1 fibroblast cell proliferation. For these and all experiments utilizing N15C6 and LNCaP cells, the N15C6 and N1 cells were used between passage 35-45, and LNCaP cells between passages 25-35, for consistency. All recombinant CXC proteins were obtained from R&D systems (e.g., CXCL1, #275-GR, CXCL5, #254-X; CXCL6, #333-GC, and SDF1 alpha/CXCL12, #350-NS). Cells were plated at 50,000 cells/well in triplicate, treated for 96 hours, and counted. […] Moreover, the concentrations for CXCL1, CXCL5, CXCL6 and CXCL12 observed to be growth-stimulatory for prostate epithelial cells were similar to those secreted into the media by older prostate stromal fibroblasts (see, e.g., FIGS. 6A and 6B).

[2] = tested on: PC3 prostate cancer cells; experiment: Matrigel invasion assay, PC3; details: 20 nM chemokine
Description: Invasion Assays. Ability to invade through synthetic basement membrane was measured by plating 15,000 cells/well onto control or Matrigel-coated membranes in duplicate using 24-well BD Matrigel Invasion Chambers (Becton-Dickinson). Cells were plated in complete media and left untreated or pre-treated with 1 ug/ml anti-CXCR2 (Biosource AHR1532X) or anti-CXCR4 (BD Pharmingen 555971) for 2 hours, then exposed to complete media only or 20 nM CXCL5 as a chemo-attractant added to the companion plate. After 24 hours of incubation, the upper surface of the membranes were ‘scrubbed’ to remove non-invasive cells, and the cells that had invaded through to the lower surface of the Matrigel-coated membranes or to the bottom of the companion plate were fixed, stained, and counted. The number of invaded cells was calculated as the average number of cells present on the lower surface of the Matrigel-coated membrane and the companion plate counted over four low power (10× objective) microscopic fields per membrane over both wells per experimental condition. […]

[3] = tested on: p65 subunit of NF-kappaB; experiment: Western blot, p65 phosphorylation in N15C6 cells; details: 10 pM, 100 pM or 1 nM CXCL5 tested
Description: Western blot analysis Cells were lysed, proteins resolved by electrophoresis and electroblotting was carried out as described previously (Chaib H, et al., (2001) Cancer Res. 61, 2390-2394; incorporated herein by reference in its entirety). Proteins were detected using antibodies against phospho-ERK½ (Cell Signaling no. 9101), total ERK½ (Cell Signaling, no. 9102), CXCR4 (Abcam no. ab2074), CXCR7 (Abcam #Ab12870, Abcam #Ab12871, Abcam #38089), phospho-p65 (Rockland no. 100-401-264), total p65 (Rockland no. 100-4165), or beta-actin (Santa Cruz no. sc-1615), in conjunction with an ECL detection system.
Western Blot and Protein Analysis. […] Proteins were detected using antibodies against phospho-ERK½ (Cell Signaling #9101), total ERK½ (Cell Signaling, #9102), phospho-p65, (Rockland #100-401-264), total p65 (Rockland #100-4165), STAT3 (9139), phospho-STAT3 (9138), beta-actin (Santa Cruz #sc-1615), or tubulin (Upstate, #DM1A) in conjunction with an ECL detection system. […] Densitometric quantitation of immunoblot films was accomplished by scanning the original films and converting the .tiff files to grayscale. Images were inverted, and mean band intensities were measured using ImageJ (www, followed by, .nih.gov). The mean intensity of adjacent background was also measured for each band and subtracted from band intensity.

[4] = tested on: STAT3; experiment: Western blot, STAT3 phosphorylation in N15C6 cells; details: 10 pM, 100 pM or 1 nM CXCL5
Description: Western Blot and Protein Analysis. Cells were lysed, proteins resolved by electrophoresis, and electroblotting was carried out as described previously except that 20 ug protein was electrophoresed per gel lane for N15C6 cells and 100 ug protein for LNCaP cells (see, e.g., Begley L, et al., Aging Cell. 2005 December; 4(6):291-8; Begley L A, et al., J Biol. Chem. 2007 Sep. 14; 282(37):26767-74; each herein incorporated by reference in their entireties). Proteins were detected using antibodies against phospho-ERK½ (Cell Signaling #9101), total ERK½ (Cell Signaling, #9102), phospho-p65, (Rockland #100-401-264), total p65 (Rockland #100-4165), STAT3 (9139), phospho-STAT3 (9138), beta-actin (Santa Cruz #sc-1615), or tubulin (Upstate, #DM1A) in conjunction with an ECL detection system. Secondary antibodies included goat anti-rabbit (Cell Signaling, #7074) and goat anti-mouse (Santa Cruz, #SC-2005), and both were used at a 1:5000 concentration. Immunoblots shown are representative of triplicate experiments. Densitometric quantitation of immunoblot films was accomplished by scanning the original films and converting the .tiff files to grayscale. Images were inverted, and mean band intensities were measured using ImageJ (www, followed by, .nih.gov). The mean intensity of adjacent background was also measured for each band and subtracted from band intensity.

Question: What does the source list for “CXCL5: recombinant human CXCL5 (R&D Systems, 254-X), CXC-type chemokine”?
Answer: cell proliferation compared to serum-free (SF HIE) media alone [1]: stimulate; invasion through Matrigel versus control media / vehicle [2]: invaded; also recorded: significantly more; NFkappaB subunit activation [3]: evident only after treatment with 1 nM CXCL5; STAT3 phosphorylation [4]: rapidly and transiently phosphorylated
